Laboratory results taken from PubChem BioAssay AID743479 (Broad Institute, 2014).
Inconclusive results are not listed. Calls of active or inactive are those of the source.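 How the source made its calls: active means fitted curve crosses 35% inhibition of luciferase signal below 10 µM, corrected for cell viability; inconclusive means no clear call, values can overlap the other calls; inactive means activity opposite to the expected decrease, otherwise the rest.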

Experiments:
[1] = tested on: A673 NR0B1-luciferase reporter, viability-normalised luminescence; assay: inhibitors of EWS/FLI-driven NR0B1 reporter expression, dose response, luciferase luminescence, A673 cells, dry powder (AID 743479)
[2] = as above; details: A673 NR0B1-luciferase reporter, viability-normalised luminescence

SMILES | AC35 [1] | also measured
O=C(c1cc(Cc2n[nH]c(=O)c3ccccc23)ccc1F)N1CCN(C(=O)C2CC2)CC1 | 238 µM | 
Nc1ncnc2c1c(-c1cccc(OCc3ccccc3)c1)cn2C1CC(CN2CCCC2)C1 (stereo not given) | 17.3 µM | 
COc1ccc(OC)c(-c2nnc3n2N=C(c2ccc(OC)c(OC)c2)CS3)c1 | 0.0319 µM | 
Cc1cc(Nc2cc(N3CCN(C)CC3)nc(Sc3ccc(NC(=O)C4CC4)cc3)n2)n[nH]1 | 39.5 µM | 
CN1c2ccc(-c3ccc(C#N)cc3)cc2[C@H]2[C@H](CCN2S(=O)(=O)c2cccc(F)c2)[C@H]1CO | 2.35 µM | 
CCCCc1ccc2nc(NC(=O)OC)[nH]c2c1 |  | activity change, negative = inhibition ([2]; at 68 µM (top of the series)): -8.52% (inactive)
COc1ccccc1S(=O)(=O)N1CC[C@@H]2[C@@H](CO)Nc3ccc(-c4ccc(C#N)cc4)cc3[C@@H]21 | 15.5 µM | 
O=P1(NCCCl)OCCCN1CCCl (stereo not given) |  | activity change, negative = inhibition ([2]; at 135 µM (top of the series)): 11.8% (inactive)
Cc1cccc(C2C(C#N)=C(N)Oc3cc(N)ccc32)c1 (stereo not given) | 0.705 µM | 
COc1ccc(-c2ccc3c(c2)[C@H]2[C@H](CCN2S(=O)(=O)c2ccc(OC)cc2)[C@@H](CO)N3)cc1 | 3.57 µM | 
COc1ccc(S(=O)(=O)N2CC[C@@H]3[C@H](CO)Nc4ccc(-c5ccc(C#N)cc5)cc4[C@@H]32)cc1 | 8.44 µM | 
COc1ccccc1-c1nnc2n1N=C(c1ccc3c(c1)OCO3)CS2 | 0.0242 µM | 
CC(C)N1c2ccccc2C(c2ccc(F)cc2)C1/C=C/C(O)CC(O)CC(=O)O (stereo not given) | 7.59 µM | 
Cc1ccc(C2C(C#N)=C(N)Oc3cc(N)ccc32)cc1 (stereo not given) | 54.6 µM | 
COc1ccc(S(=O)(=O)N2CC[C@@H]3[C@@H](CO)Nc4ccc(-c5ccc(C#N)cc5)cc4[C@@H]32)cc1 | 3.37 µM | 
Cc1ccc(S(=O)(=O)N2CC[C@@H]3[C@@H](CO)Nc4ccc(-c5ccc(C#N)cc5)cc4[C@@H]32)cc1 | 17.2 µM | 
COc1cccc2c1C(=O)c1c(O)c3c(c(O)c1C2=O)C[C@@](O)(C(=O)CO)C[C@@H]3O[C@H]1C[C@H](N)[C@H](O)[C@H](C)O1 | 15.1 µM | 
CC1(C)CC(c2nc(-c3ccc4ccc(-c5ccccc5)nc4c3)c3c(N)nccn23)C1 | 37.9 µM | 
N#CC1=C(N)Oc2cc(N)ccc2C1c1ccc(Cl)cc1 (stereo not given) | 43 µM | 
C[C@@]1(C(=O)Nc2ccc(F)nc2)CCCN1c1nc(Nc2cc(C3CC3)[nH]n2)c2cccn2n1 | 2.9 µM | 
CN1c2ccc(-c3ccc(C#N)cc3)cc2[C@H]2[C@H](CCN2S(=O)(=O)c2ccc(F)cc2)[C@H]1CO | 33.6 µM | 
N#CC1=C(N)Oc2cc(N)ccc2C1c1ccccc1Cl (stereo not given) | 26.6 µM | 
C[C@]1(c2nc3c(C(N)=O)cccc3[nH]2)CCCN1 |  | activity change, negative = inhibition ([2]; at 68 µM (top of the series)): -14.9% (inactive)
CCN(CCO)CCCOc1ccc2c(Nc3cc(CC(=O)Nc4cccc(F)c4)[nH]n3)ncnc2c1 |  | activity change, negative = inhibition ([2]; at 4.2 µM (top of the series)): 0.506% (inactive)
N#Cc1ccc(-c2ccc3c(c2)[C@H]2[C@H](CCN2S(=O)(=O)c2cccc(F)c2)[C@@H](CO)N3)cc1 | 4.95 µM | 

SMILES | AC35 [1] | also measured
N#CC1=C(N)Oc2cc(O)ccc2C1c1cccc(Br)c1 (stereo not given) | 2.2 µM | 
COc1ccccc1-c1nnc2n1N=C(c1ccc(O)c(O)c1)CS2 | 3.93 µM | 
COc1ccc(-c2cc(NC=O)c3ncc(-c4ccc(OC)c(OC)c4)n3c2)cc1 | 0.778 µM | 
Cc1nc(Nc2ncc(C(=O)Nc3c(C)cccc3Cl)s2)cc(N2CCN(CCO)CC2)n1 | 18.9 µM | 
N#Cc1ccc(-c2ccc3c(c2)[C@H]2[C@H](CCN2S(=O)(=O)c2ccccc2F)[C@@H](CO)N3)cc1 | 7.82 µM | 
COc1ccc(CNc2nc(N3CCC[C@H]3CO)ncc2C(=O)NCc2ncccn2)cc1Cl | 45.2 µM | 
COc1ccc(-c2cc(NC(C)=O)c3ncc(-c4ccc(OC)c(OC)c4)n3c2)cc1 |  | activity change, negative = inhibition ([2]; at 68 µM (top of the series)): -21.4% (inactive)
Clc1ccc(-c2cnc3ccc(-c4ccccc4)cn23)cc1 |  | activity change, negative = inhibition ([2]; at 16 µM (top of the series)): 38.6% (inactive)
COc1cc([C@@H]2c3cc4c(cc3[C@@H](O[C@@H]3O[C@@H]5CO[C@@H](C)O[C@H]5[C@H](O)[C@H]3O)[C@H]3COC(=O)[C@H]23)OCO4)cc(OC)c1O | 3.01 µM | 
CCC(C)(C)C(=O)O[C@H]1C[C@@H](C)C=C2C=C[C@H](C)[C@H](CC[C@@H]3C[C@@H](O)CC(=O)O3)[C@H]21 | 55 µM | 
CC[C@@]1(O)C(=O)OCc2c1cc1n(c2=O)Cc2cc3c(CN(C)C)c(O)ccc3nc2-1 | 0.112 µM | 
COc1cc(C2C(C#N)=C(N)Oc3cc(N(C)C)ccc32)cc2c1OCO2 (stereo not given) | 0.186 µM | 
N#CC1=C(N)Oc2cc(N)ccc2C12C(=O)Nc1ccc(Br)cc12 (stereo not given) | 43.3 µM | 
CN1CCN(CCOc2cc(OC3CCOCC3)c3c(Nc4c(Cl)ccc5c4OCO5)ncnc3c2)CC1 | 17.3 µM | 
N#CC1=C(N)Oc2cc3c(cc2C1c1cccc(Br)c1)OCO3 (stereo not given) | 0.0564 µM | 
Clc1ccccc1-c1nnc2n1N=C(c1ccc3c(c1)OCO3)CS2 | 0.75 µM | 
Cn1cc(-c2ccncc2)c(-c2ccc(OCc3ccc4ccccc4n3)cc2)n1 | 51.7 µM | 
CCOC(=O)CCNc1cc(N2CCc3ccccc3CC2)nc(-c2ccccn2)n1 | 32.8 µM | 
Nc1ccn([C@@H]2O[C@H](CO)[C@H](O)C2O)c(=O)n1 (stereo not given in full) | 1.26 µM | 
COc1ccc(C2CNC(=O)C2)cc1OC1CCCC1 (stereo not given) |  | activity change, negative = inhibition ([2]; at 68 µM (top of the series)): -4.33% (inactive)
N#CC1=C(N)Oc2cc(N)ccc2C1c1cccc(F)c1 (stereo not given) | 1.2 µM | 
COc1ccc(S(=O)(=O)N(C(C)=O)c2ccc(OC(C)=O)c3ccccc23)cc1[N+](=O)[O-] | 2.81 µM | 
COc1ccc(C2=Nn3c(nnc3-c3ccccc3)SC2)cc1OC | 42.7 µM | 
N#CC1=C(N)Oc2cc(N)ccc2C1c1ccc2ccccc2c1 (stereo not given) | 19.4 µM | 
COc1ccc(C2=Nn3c(nnc3-c3ccccc3OC)SC2)cc1OC | 0.131 µM | 

SMILES | AC35 [1] | also measured
CCc1c2c(nc3ccc(O)cc13)-c1cc3c(c(=O)n1C2)COC(=O)C3(O)CC (stereo not given) | 0.00781 µM | 
COc1cccc(C2C(C#N)=C(N)Oc3cc(N)ccc32)c1 (stereo not given) | 0.629 µM | 
COC(=O)c1ccc(C2C(C#N)=C(N)Oc3cc(N)ccc32)cc1 (stereo not given) | 40.2 µM | 
N#CC1=C(N)Oc2ccc3ccccc3c2C1c1cccc(F)c1 (stereo not given) | 0.968 µM | 
C=C([C@@H](O)[C@@H](C)O)[C@@H](OC)[C@]1(C)Cc2cc3cc(O[C@H]4CC(OC5CC(O)C(O)C(C)O5)C(O)C(C)O4)cc(O)c3c(O)c2C(=O)[C@H]1OC1CC(OC2CC(OC3CC(C)(O)C(O)C(C)O3)C(O)C(C)O2)C(O)C(C)O1 (stereo not given in full) |  | activity change, negative = inhibition ([2]; at 6.8 µM (top of the series)): 12.4% (inactive)
COc1ccc(C2=Nn3c(nnc3-c3ccccc3F)SC2)cc1OC | 11.5 µM | 
COc1ccc(C2=Nn3c(nnc3-c3ccccc3Cl)SC2)cc1OC | 0.69 µM | 
CN(C)c1ccc2c(c1)OC(N)=C(C#N)C2c1cccc(F)c1 (stereo not given) | 0.0309 µM | 
COc1ccc(S(=O)(=O)N2CC[C@@H]3[C@@H](CO)N(C)c4ccc(-c5ccc(F)cc5)cc4[C@@H]32)cc1 | 2.85 µM | 
COc1cc(Nc2ncc3c(n2)-c2ccc(Cl)cc2C(c2c(F)cccc2OC)=NC3)ccc1C(=O)O |  | activity change, negative = inhibition ([2]; at 68 µM (top of the series)): 114% (inactive)
N#CC1=C(N)Oc2cc(N)ccc2C1c1cccc(Br)c1 (stereo not given) | 0.223 µM | 
COc1ccc(C2C(C#N)=C(N)Oc3cc(N)ccc32)cc1 (stereo not given) | 53.2 µM | 
COc1ccc(C(=O)CC2(O)C(=O)Nc3c(Cl)ccc(Cl)c32)cc1 (stereo not given) | 3.21 µM | 
CCC(C)C(=O)OC1CC(C)C=C2C=CC(C)C(CCC(O)CC(O)CC(=O)O)C21 (stereo not given) | 55.5 µM | 
O=C(Nc1c(Cl)cncc1Cl)c1ccc(OC(F)F)c(OCC2CC2)c1 | 56.9 µM | 
COc1ccccc1C1C(C#N)=C(N)Oc2cc(N)ccc21 (stereo not given) | 53.1 µM | 
CN(C(=O)CCCOc1ccc2[nH]c(=O)ccc2c1)C1CCCCC1 | 49.6 µM | 
Cc1ccccc1C1C(C#N)=C(N)Oc2cc(N)ccc21 (stereo not given) | 40.9 µM | 
COc1ccc(-c2ccc3c(c2)[C@H]2[C@H](CCN2S(=O)(=O)c2ccc(OC)cc2)[C@@H](CO)N3C)cc1 | 4.43 µM | 
N#CC1=C(N)Oc2cc(N)ccc2C1c1ccccc1 (stereo not given) | 16.6 µM | 
Cc1ccc([N+](=O)[O-])cc1S(=O)(=O)N(C)C | 59.7 µM | 
COc1ccc(NC(=O)Nc2ccc3c(c2)C(=O)N([C@@H](C)CO)C[C@H](C)[C@H](CN(C)Cc2ccc4c(c2)OCO4)O3)cc1 | 18.8 µM | 
COc1cccc(S(=O)(=O)N2CC[C@@H]3[C@@H](CO)Nc4ccc(-c5ccc(C#N)cc5)cc4[C@@H]32)c1 | 28.5 µM | 
COc1ccc(S(=O)(=O)N2CC[C@@H]3[C@@H](CO)Nc4ccc(-c5cccc(C#N)c5)cc4[C@@H]32)cc1 | 4.71 µM | 
N#CC1=C(N)Oc2cc(OC(=O)c3ccccc3)ccc2C1c1cccc(Br)c1 (stereo not given) | 3.55 µM | 
